Experimental data taken from patent US8455475B2 (Gruenenthal GmbH, priority 2009, dated 2013).

Molecular target: T1, rat B1R (bradykinin receptor 1) (Rattus norvegicus, UniProt P97583)
T1 construct: expressed in transfected cells; host or cells: CHO K1 cells
T1 sequence (P97583 1-337): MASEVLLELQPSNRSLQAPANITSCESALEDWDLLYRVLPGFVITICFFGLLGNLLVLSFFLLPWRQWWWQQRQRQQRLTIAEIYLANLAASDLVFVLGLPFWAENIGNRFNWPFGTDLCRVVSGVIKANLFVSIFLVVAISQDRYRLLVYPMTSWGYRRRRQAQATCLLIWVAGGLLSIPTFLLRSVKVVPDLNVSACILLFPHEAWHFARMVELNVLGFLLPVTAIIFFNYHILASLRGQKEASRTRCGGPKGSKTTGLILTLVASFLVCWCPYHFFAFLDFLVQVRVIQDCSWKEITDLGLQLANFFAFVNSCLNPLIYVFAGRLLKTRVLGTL
Assay: FLIPR Ca2+ assay (Fluo-4) on CHO K1 cells stably transfected with the B1R gene of the rat (rB1R cells): % inhibition at 10 μM / IC50, agonist Des-Arg9-bradykinin
Format: cell-based
Details: CHO-K1, rat B1R
Description: The agonistic or antagonistic action of substances can be quantified on the bradykinin receptor 1 (B1R) of the human and rat species with ectopically expressing cell lines (CHO K1 cells) and with the aid of a Ca^2+-sensitive dyestuff (Fluo-4) in a fluorescent imaging plate reader (FLIPR). The figure in % activation is based on the Ca^2+ signal after addition of Lys-Des-Arg^9-bradykinin (0.5 nM) or Des-Arg^9-bradykinin (100 nM). Antagonists lead to a suppression of the Ca^2+ inflow after addition of the agonist. % inhibition compared with the maximum achievable inhibition is stated.
The agonistic or antagonistic action of substances can be determined on the bradykinin receptor 1 (B1R) of the human and rat species with the following assay. In accordance with this assay, the Ca^2+ inflow through the channel is quantified with the aid of a Ca^2+-sensitive dyestuff (type Fluo-4, Molecular Probes Europe BV, Leiden, Holland) in a fluorescent imaging plate reader (FLIPR, Molecular Devices, Sunnyvale, USA).
Chinese hamster ovary cells (CHO K1 cells) transfected stably with the human B1R gene (hB1R cells) or the B1R gene of the rat (rB1R cells) are used. For functional studies, these cells are plated out on black 96-well plates with a clear base (BD Biosciences, Heidelberg, Germany or Greiner, Frickenhausen, Germany) in a density of 20,000-35,000 cells/well. The cells are left overnight at 37° C. and 5% CO2 in culture medium (hB1R cells: Nutrient Mixture Ham's F12, Gibco Invitrogen GmbH, Karlsruhe, Germany or DMEM, Sigma-Aldrich, Taufkirchen, Germany; rB1R cells: D-MEM/F12, Gibco Invitrogen GmbH, Karlsruhe, Germany) with 10 vol. % FBS (foetal bovine serum, Gibco Invitrogen GmbH, Karlsruhe, Germany or PAN Biotech GmbH, Aidenbach, Germany). On the following day, the cells are loaded for 60 min at 37° C. with 2.13 μM Fluo-4 (Molecular Probes Europe BV, Leiden Holland) in HBSS buffer (Hank's buffered saline solution, Gibco Invitrogen GmbH, Karlsruhe, Germany) with 2.5 mM probenecid (Sigma-Aldrich, Taufkirchen, Germany) and 10 mM HEPES (Sigma-Aldrich, Taufkirchen, Germany). The plates are then washed 2× with HBSS buffer, and HBSS buffer which additionally contains 0.1% BSA (bovine serum albumin; Sigma-Aldrich, Taufkirchen, Germany), 5.6 mM glucose and 0.05% gelatine (Merck KGaA, Darmstadt, Germany) is added. After a further incubation of 20 minutes at room temperature, the plates are inserted into the FLIPR for the Ca^2+ measurement. Alternatively, the plates are washed with buffer A (15 mM HEPES, 80 mM NaCl, 5 mM KCl, 1.2 mM CaCl2, 0.7 mM MgSO4, 2 g/l glucose, 2.5 mM probenecid), buffer A is added and the plates are loaded with 2.5 μM Fluo-4 and 0.025% Pluronic F127 (Sigma-Aldrich, Taufkirchen, Germany). Thereafter, the cells are washed 2× with buffer A and incubated for 30 minutes at room temperature with buffer A, which additionally contains 0.05% BSA and 0.05% gelatine, and thereafter inserted into the FLIPR for the Ca^2+ measurement. The Ca^2+-dependent fluorescence is measured here before and after addition of substances (λex=488 nm, λem=540 nm). Quantification is by measurement of the highest fluorescence intensity (FC, fluorescence counts) over time.
The FLIPR protocol consists of 2 additions of substance. Test substances (10 μM) are first pipetted on to the cells and the Ca^2+ inflow is compared with the control (hB1R: Lys-Des-Arg^9-bradykinin>=50 nM; rB1R: Des-Arg^9-bradykinin 10 μM). This gives the result in % activation based on the Ca^2+ signal after addition of Lys-Des-Arg^9-bradykinin (>=50 nM) or Des-Arg^9-bradykinin (10 μM). After incubation for 10-20 minutes, Lys-Des-Arg^9-bradykinin (hB1R) or Des-Arg^9-bradykinin (rB1R) in the concentration of the EC80 is applied and the inflow of Ca^2+ is likewise determined. Antagonists lead to a suppression of the Ca^2+ inflow. % inhibition compared with the maximum achievable inhibition is calculated.
For determination of the IC50 value, the substances are added in various concentrations. […]

| SMILES | inhibition at 10 µM [%] |
| --- | --- |
| CC1(C)CC(NS(=O)(=O)c2c(Cl)cccc2Cl)c2cc(C(=O)N3CCC4(CC3)CCN(c3ccncc3)CC4)ccc21 (stereo not shown) [IND_CC-332, 2,6-Dichloro-N-[3,3-dimethyl-6-(3-pyridin-4-yl-3,9-diazaspiro[5.5]undecane-9-carbonyl)-1,2-dihydro-inden-1-yl]-benzenesulfonic acid amide] | 97 |
| CC1(C)CC(NS(=O)(=O)c2ccc(Cl)cc2Cl)c2cc(C(=O)N3CCC4(CC3)CCN(c3ccncc3)CC4)ccc21 (stereo not shown) [IND_CC-335, 2,4-Dichloro-N-[3,3-dimethyl-6-(3-pyridin-4-yl-3,9-diazaspiro[5.5]undecane-9-carbonyl)-1,2-dihydro-inden-1-yl]-benzenesulfonic acid amide] | 102 |
| CC1(C)Cc2ccc(C(=O)N3CCC4(CC3)CCN(c3ccncc3)CC4)cc2C1NS(=O)(=O)c1ccccc1Cl (stereo not shown) [IND_CC-336, 2-Chloro-N-[2,2-dimethyl-6-(9-pyridin-4-yl-3,9-diazaspiro[5.5]undecane-3-carbonyl)-1,3-dihydro-inden-1-yl]-benzenesulfonic acid amide] | 103 |
| Cc1cc(F)ccc1S(=O)(=O)NC1c2cc(C(=O)N3CCC4(CC3)CCN(c3ccncc3)CC4)ccc2CC1(C)C (stereo not shown) [IND_CC-338, N-[2,2-Dimethyl-6-(9-pyridin-4-yl-3,9-diazaspiro[5.5]undecane-3-carbonyl)-1,3-dihydro-inden-1-yl]-4-fluoro-2-methyl-benzenesulfonic acid amide] | 103 |
| Cc1cc(F)ccc1S(=O)(=O)NC1CC(C)(C)c2ccc(C(=O)N3CCC4(CC3)CCN(c3ccncc3)CC4)cc21 (stereo not shown) [IND_CC-339, N-[3,3-Dimethyl-6-(3-pyridin-4-yl-3,9-diazaspiro[5.5]undecane-9-carbonyl)-1,2-dihydro-inden-1-yl]-4-fluoro-2-methyl-benzenesulfonic acid amide] | 103 |
| CC1(C)CC(NS(=O)(=O)c2cccc(C(F)(F)F)c2)c2cc(C(=O)N3CCC4(CC3)CCN(c3ccncc3)CC4)ccc21 (stereo not shown) [IND_CC-340, N-[3,3-Dimethyl-6-(3-pyridin-4-yl-3,9-diazaspiro[5.5]undecane-9-carbonyl)-1,2-dihydro-inden-1-yl]-3-(trifluoromethyl)-benzenesulfonic acid amide] | 101 |
| CC1(C)Cc2ccc(C(=O)N3CCC4(CC3)CCN(c3ccncc3)CC4)cc2C1NS(=O)(=O)c1cccc(C(F)(F)F)c1 (stereo not shown) [IND_CC-341, N-[2,2-Dimethyl-6-(9-pyridin-4-yl-3,9-diazaspiro[5.5]undecane-3-carbonyl)-1,3-dihydro-inden-1-yl]-3-(trifluoromethyl)-benzenesulfonic acid amide] | 87 |
| O=C(c1ccc2c(c1)C(NS(=O)(=O)c1cccc(C(F)(F)F)c1)CC2)N1CCC2(CCN(c3ccncc3)CC2)C1 (stereo not shown) [IND_CC-342, N-[6-(8-Pyridin-4-yl-2,8-diazaspiro[4.5]decane-2-carbonyl)-2,3-dihydro-1H-inden-1-yl]-3-(trifluoromethyl)-benzenesulfonic acid amide] | 103 |
| Cc1ccccc1C(=O)NC1CCc2ccc(C(=O)N3CCC4(CC3)CCN(c3ccncc3)CC4)cc21 (stereo not shown) [IND_CC-346, 2-Methyl-N-[6-(9-pyridin-4-yl-3,9-diazaspiro[5.5]undecane-3-carbonyl)-2,3-dihydro-1H-inden-1-yl]-benzamide] | 104 |
| CN(C1CCc2ccc(C(=O)N3CCC4(CC3)CCN(c3ccncc3)CC4)cc21)S(=O)(=O)Cc1ccccc1F (stereo not shown) [IND_CC-348, 1-(2-Fluorophenyl)-N-methyl-N-[6-(9-pyridin-4-yl-3,9-diazaspiro[5.5]undecane-3-carbonyl)-2,3-dihydro-1H-inden-1-yl]-methanesulfonic acid amide] | 102 |
| CN(C1CCc2ccc(C(=O)N3CCC4(CC3)CCN(c3ccncc3)CC4)cc21)S(=O)(=O)Cc1cccc(Cl)c1 (stereo not shown) [IND_CC-351, 1-(3-Chlorophenyl)-N-methyl-N-[6-(9-pyridin-4-yl-3,9-diazaspiro[5.5]undecane-3-carbonyl)-2,3-dihydro-1H-inden-1-yl]-methanesulfonic acid amide] | 99 |

Next, values leading:

| inhibition at 10 µM [%] | SMILES |
| --- | --- |
| 92 | O=C(c1ccc2c(c1)C(NS(=O)(=O)c1c(Cl)cccc1Cl)CC2)N1CCC2(CCN(c3ccncc3)CC2)C1 (stereo not shown) [IND_CC-333, 2,6-Dichloro-N-[6-(8-pyridin-4-yl-2,8-diazaspiro[4.5]decane-2-carbonyl)-2,3-dihydro-1H-inden-1-yl]-benzenesulfonic acid amide] |
| 90 | CC1(C)Cc2ccc(C(=O)N3CCC4(CC3)CCN(c3ccncc3)CC4)cc2C1NS(=O)(=O)c1ccc(Cl)cc1Cl (stereo not shown) [IND_CC-334, 2,4-Dichloro-N-[2,2-dimethyl-6-(9-pyridin-4-yl-3,9-diazaspiro[5.5]undecane-3-carbonyl)-1,3-dihydro-inden-1-yl]-benzenesulfonic acid amide] |
| 104 | CC1(C)CC(NS(=O)(=O)c2ccccc2Cl)c2cc(C(=O)N3CCC4(CC3)CCN(c3ccncc3)CC4)ccc21 (stereo not shown) [IND_CC-337, 2-Chloro-N-[3,3-dimethyl-6-(3-pyridin-4-yl-3,9-diazaspiro[5.5]undecane-9-carbonyl)-1,2-dihydro-inden-1-yl]-benzenesulfonic acid amide] |
| 99 | CN(C1CCc2ccc(C(=O)N3CCC4(CC3)CCN(c3ccncc3)CC4)cc21)S(=O)(=O)c1cc(Cl)ccc1Cl (stereo not shown) [IND_CC-344, 2,5-Dichloro-N-methyl-N-[6-(9-pyridin-4-yl-3,9-diazaspiro[5.5]undecane-3-carbonyl)-2,3-dihydro-1H-inden-1-yl]-benzenesulfonic acid amide] |
| 105 | Cc1ccccc1C(=O)N(C)C1CCc2ccc(C(=O)N3CCC4(CC3)CCN(c3ccncc3)CC4)cc21 (stereo not shown) [IND_CC-345, N,2-Dimethyl-N-[6-(9-pyridin-4-yl-3,9-diazaspiro[5.5]undecane-3-carbonyl)-2,3-dihydro-1H-inden-1-yl]-benzamide] |
| 106 | Cc1ccccc1C(=O)NC1CCc2ccc(C(=O)N3CCC4(CC3)CCN(c3ccncc3)C4)cc21 (stereo not shown) [IND_CC-347, 2-Methyl-N-[6-(2-pyridin-4-yl-2,8-diazaspiro[4.5]decane-8-carbonyl)-2,3-dihydro-1H-inden-1-yl]-benzamide] |
| 105 | O=C(c1ccc2c(c1)C(NS(=O)(=O)Cc1ccccc1F)CC2)N1CCC2(CC1)CCN(c1ccncc1)CC2 (stereo not shown) [IND_CC-349, 1-(2-Fluorophenyl)-N-[6-(9-pyridin-4-yl-3,9-diazaspiro[5.5]undecane-3-carbonyl)-2,3-dihydro-1H-inden-1-yl]-methanesulfonic acid amide] |
| 106 | O=C(c1ccc2c(c1)C(NS(=O)(=O)Cc1ccccc1F)CC2)N1CCC2(CC1)CCN(c1ccncc1)C2 (stereo not shown) [IND_CC-350, 1-(2-Fluorophenyl)-N-[6-(2-pyridin-4-yl-2,8-diazaspiro[4.5]decane-8-carbonyl)-2,3-dihydro-1H-inden-1-yl]-methanesulfonic acid amide] |
